Laboratory results from patent US10111900B2, “β-glucan methods and compositions that affect the tumor microenvironment” (Biothera, Inc., priority 2014, dated 2018).
Entries after “also recorded” stand apart in the source; their conditions may differ.

Key:
CD4 and CD8 T cells [1] = experiment: T cell proliferation and activation of PBMCs in plasma from β-glucan-treated whole blood; assay type: cell-based, human
Protocol: To obtain plasma, whole blood was treated for 6 hours with 25 μg/mL β-glucan or vehicle, spun down and the plasma removed. 50,000 autologous CFSE-labeled PBMCs were cultured in the treated plasma for 3 days in the presence of 50,000 T cell activating CD3/28 beads (DYNABEADS Human T-Activator CD3/CD28 for T Cell Expansion and Activation). At the end of the culture, PBMCs were stained with CD4 and CD8 and T cell proliferation was measured by CFSE dilution.
Next, to show the effect of soluble β-glucan on CD4 and CD8 cell activation, the T cell proliferation assay described above was again carried out. At day 3, however, the cells were stained for markers of activation including Granzyme B production and CD25 upregulation.

IFN-γ = IFN-γ in supernatants of macrophage and CD4 T cell co-cultures (ELISA); assay type: cell-based, human
Protocol: CD14^+ monocytes from human whole blood were enriched using Ficoll gradient and magnetic bead separation. Enriched monocytes (5×10^5 cells per mL) were then cultured in either M1-polarizing (XVivo 10 media (Lonza Group) supplemented with 5% autologous serum and 100 ng/mL recombinant human granulocyte macrophage colony-stimulating factor (rhGM-CSF) (R&D Systems) or M2-polarizing (XVivo 10 media supplemented with 10% autologous serum and 50 ng/mL recombinant human macrophage colony-stimulating factor (rhM-CSF) (R&D Systems) conditions for 6 days. In experiments performed to evaluate the effect of β-glucan, whole blood was first incubated with vehicle (sodium citrate buffer) or 25 μg/mL soluble β-glucan for 2 hours at 37° C. and then the monocytes were isolated and differentiated. Morphology was checked before macrophages were harvested for phenotypic analysis. Culture medium of the day 6 macrophage culture (MCM) was collected, spun down to remove contaminated cell pellet and then frozen down for subsequent cytokine analysis by ELISA or used to setup a co-culture with CD3 & CD28-stimulated CD4 T cells (MCM-CD4 T) for evaluation of either surface markers or CD4 T cell proliferation. The macrophages were used to setup a co-culture with CD3 & CD28- or CD3 only-stimulated CD4 T cells (Mac-CD4 T) on day 6 for evaluation of either surface marker modulation or effect on CD4 T cell proliferation. For Mac-CD4 T cell proliferation study, M1 or M2 macrophages were cultured with CD3 & CD28- or CD3 only-stimulated, CFSE-labeled, autologous CD4 T cells at a 1:10 ratio. T cell proliferation was measured at the end of the experiment (day 9-day 11) by flow cytometry, and results are graphically shown as CFSE-dilution peaks. The assessment of CD3-only stimulated T cells was always done on day 11. Quantitative results were reported as the Division Index (the average number of cell divisions a population underwent) calculated for each of the triplicate wells in each of the culture conditions. Culture supernatants of Mac-CD4 T cell co-cultures were collected for subsequent cytokine analysis.
The culture supernatants from the CFSE dilution T-cell proliferation assay (FIG. 2B) were also measured for IFN-gamma levels by ELISA. […] Thus, β-glucan affects M2 to M1 repolarization and drives anti-tumorigenic Th1 polarization.
M2 macrophages from 4 high binders and 4 low binders were prepared and evaluated for their ability to modulate CD4 T cell proliferation. The supernatants from the various CD4 T cell proliferation conditions were measured for IFN-γ by ELISA. Results shown in FIG. 10 are representative from 4 different experiments. Fold change over the IFN-γ levels produced in the co-cultures of vehicle-treated M2 macrophages and CD4 T cells are plotted for each of the 4 donors.

CD33+ MDSC = experiment: MDSC in peripheral blood of a case study subject treated with IMPRIME PGG; assay type: in vivo, human; settings: within hours post-infusion, cycle 8, day 1
Excerpt: Blood was drawn at various times from a case study subject undergoing treatment with IMPRIME PGG and analyzed for the presence of MDSC. The first blood draw was done pre-infusion, cycle 8, day 1. […] A second blood draw was done post-infusion, cycle 8, day 1. […] The last blood sample was drawn pre-infusion, cycle 8, day 15. The CD33^+ MDSC are again present in the peripheral blood.

[2] = tested on: M2 macrophages cultured in TCM; experiment: Flow cytometry of markers on M2 macrophages cultured in tumor-conditioned medium (TCM); assay type: cell-based, human
Protocol: Phenotypic and functional evaluation of β-glucan-treated M2a and β-glucan-treated M2 macrophages in the presence of immunosuppressive cytokines was carried out. M2 or M2a macrophages were prepared as described above. On day 3, tumor-conditioned medium (TCM) was added M2 macrophage cultures to account for 70% of the volume of the culture and then evaluated for CD163 expression and functional activity on day 6. […] M2a macrophages were cultured in IL-4 as described above.
The β-glucan-treated M2a macrophages cultured in IL-4 and M2 macrophages cultured in TCM were first evaluated for CD163 and CD86 expression. CD163 and CD86 were evaluated by flow cytometry and median MFI was calculated for isotype control staining and surface antigen staining and the results are shown in Table 5.
Monocytes or M2 macrophages were prepared as described above. On day 3, TCM was added to account for 70% of the volume of the culture and then evaluated for PD-L1 expression with TCM and then again when co-cultured with CD4 T cells.

CD4 T cells [3] = experiment: Mac-CD4 T cell proliferation assay (CFSE dilution); assay type: cell-based, human
CD4 and CD8 T cells [4] = experiment: Allogeneic mixed lymphocyte reaction with mMoDC; assay type: cell-based, human; settings: β-glucan-treated mMoDC from high binders
CD4 T cells [5] = experiment: Mac-CD4 T co-culture, surface marker modulation on T cells; assay type: cell-based, human; settings: T cells co-cultured with β-glucan-treated vs vehicle-treated M2 macrophages
Protocol: For evaluation of Mac-CD4 T cell surface marker modulation, M2 macrophages were co-cultured with T cells as described above and cells were harvested on day 8, day 9 and day 10 to perform surface receptor staining on both M2 macrophages and T cells.
Changes in surface marker expression on both macrophages and CD3 & CD28-stimulated T cells were also measured. Vehicle- and β-glucan-treated M2 macrophages and CD T cells from the co-cultures were evaluated by flow cytometry for the modulation of co-stimulatory or co-inhibitory molecules. FIG. 8C and Table 9 are representative results from 2 different experiments.

## β(1,6)-[poly-(1,3)-D-glucopyranosyl]-poly-β(1,3)-D-glucopyranose [β-glucan]
CD4 and CD8 T cells [1]; plasma from whole blood treated 6 hours with 25 μg/mL β-glucan, vs vehicle, CD3/28 beads, 3 days
  CD4 and CD8 proliferation: significant enhancement
CD4 and CD8 T cells [1]; β-glucan-treated plasma, day 3
  CD4 and CD8 cell activation (Granzyme B production, CD25 upregulation): enhances
IFN-γ; M2 in TCM / M2a in IL-4 co-cultured with CD4 T cells
  production of IFN-γ: significantly increased production
IFN-γ; M2 macrophage and CD4 T cell co-cultures, high binders
  production of IFN-γ: significantly increased production
IFN-γ; M2 macrophages and CD4 T cells, cell-to-cell contact study
  production of IFN-γ: significantly increased production
IFN-γ; low binder crossed-over with high binder's serum
  production of IFN-γ: significantly increased production
IFN-γ; supernatants of M2 macrophage and CD4 T cell co-culture
  IFN-gamma production: concomitant increase
CD33+ MDSC
  CD33+ MDSC in peripheral blood: transiently disappear
[2]; M2 macrophages cultured in the TCM
  surface expression of PD-L1: higher surface expression
[2]; M2 macrophages in TCM (data not shown)
  HLA-DR expression: higher HLA-DR expression
[2]; M2 macrophages in TCM co-cultured with CD4 T cells
  expression of PD-L1: increased expression
[2]; β-glucan-treated monocytes cultured in TCM
  CD163 expression: marked down-regulation
CD4 T cells [3]; M1 macrophages, high binders or low binders, vs vehicle
  CD4 T cell proliferation: no differences
CD4 T cells [3]; M2 macrophages cultured in TCM and M2a macrophages cultured in IL-4, vs vehicle
  CD4 T cell proliferation: maintained the ability to enhance
CD4 T cells [3]; M2 macrophages, absence of exogenous CD28 antibody (CD3 only)
  CD4 T cell proliferation: significantly higher ability to enhance
CD4 T cells [3]; M2 macrophages, high binders, CD3 & CD28-stimulated, vs vehicle
  CD4 T cell proliferation: significantly higher ability to enhance
CD4 T cells [3]; M2 macrophages, low binders, vs vehicle
  CD4 T cell proliferation: neither enhanced CD4 T cell proliferation; also recorded: no enhanced proliferation
CD4 T cells [3]; co-culture with β-glucan-treated M2 macrophages, CD3 and CD28-stimulated
  CD4 T cell proliferation: enhance CD4 T cell proliferation
CD4 and CD8 T cells [4]; over low binders
  immunogenicity in allo-MLR (CD4 and CD8 T cell expansion): increased immunogenicity
CD4 and CD8 T cells [4]; over low binders and vehicle
  IFN-γ production: able to modulate IFN-γ production
CD4 T cells [5]
  Change in MFI on T cells: 4-1BB: No change
  Change in MFI on T cells: CD28: No change
  Change in MFI on T cells: CD40L: No change
  Change in MFI on T cells: CTLA-4: No change
CD4 T cells [5]; day 9
  Change in MFI on T cells: PD1 (CD279): Increased expression; also recorded: Increase
